# Reference: ChEMBL document CHEMBL2086317, “Synthesis and Agonistic Activity at the GPR35 of 5,6-Dihydroxyindole-2-carboxylic Acid Analogues” (ACS Med Chem Lett, 2012)
# Calls of active or inactive are those of the source. The calls are words filed in the database; no cut-off is given here.
# Legend:
# Assay type in all cases: functional, cell-based
# [1] = target: T1, G-protein coupled receptor 35 (Homo sapiens, UniProt Q9HC97); assay: Agonist activity at human GPR35 expressed in U2OS cells coexpressing Gal4-VP16/beta-arrestin fusion protein after 5 hrs by tango beta-arrestin translocation reporter gene assay
# [2] = target: T1, G-protein coupled receptor 35; assay: Agonist activity at GPR35 in human HT-29 cells measured after 10 mins by dynamic mass redistribution assay
# [3] = target: T1, G-protein coupled receptor 35; assay: Agonist activity at human GPR35 expressed in U2OS cells coexpressing Gal4-VP16/beta-arrestin fusion protein after 5 hrs by tango beta-arrestin translocation reporter gene assay relative to zaprinast
# [4] = target: T1, G-protein coupled receptor 35; assay: Agonist activity at GPR35 in human HT-29 cells at 1 uM measured after 10 mins by dynamic mass redistribution assay in presence of SPB05142
# [5] = target: T1, G-protein coupled receptor 35; assay: Agonist activity at human GPR35 expressed in U2OS cells coexpressing Gal4-VP16/beta-arrestin fusion protein at 100 uM after 5 hrs by tango beta-arrestin translocation reporter gene assay in presence of ML145
# [6] = target: T1, G-protein coupled receptor 35; assay: Agonist activity at GPR35 in human HT-29 cells at 32 uM measured after 10 mins by dynamic mass redistribution assay in presence of SPB05142
# [7] = target: T1, G-protein coupled receptor 35; assay: Agonist activity at GPR35 in human HT-29 cells at 64 uM measured after 10 mins by dynamic mass redistribution assay in presence of SPB05142
# T1 sequence (Q9HC97 whole entry, the tested form may be a part): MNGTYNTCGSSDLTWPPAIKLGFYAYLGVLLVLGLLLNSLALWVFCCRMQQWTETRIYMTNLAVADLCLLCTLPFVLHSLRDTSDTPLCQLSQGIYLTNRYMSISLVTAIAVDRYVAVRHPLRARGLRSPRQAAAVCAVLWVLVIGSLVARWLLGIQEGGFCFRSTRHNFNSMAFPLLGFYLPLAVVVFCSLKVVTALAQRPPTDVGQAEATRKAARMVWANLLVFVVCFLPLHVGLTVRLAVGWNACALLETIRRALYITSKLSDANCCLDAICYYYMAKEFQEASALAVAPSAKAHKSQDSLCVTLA
EC50 ([1]; read-out: EC50) [µM],EC50 ([2]; read-out: EC50) [µM],Efficacy [3] [%],EC50 ([1]; u2os),Structure (SMILES),other results
109,4.36,48,,O=C(O)c1[nH]c2cc(O)c(O)cc2c1-c1cc(F)cc(F)c1,
,39.7,,Not Active,Cc1ccc(C(=O)Cn2c(C(=O)O)cc3cc(O)c(O)cc32)cc1,
45.7,77.1,52,,CCn1c(C(=O)O)cc2cc(O)c(O)cc21,
46.5,0.16,94,,Cc1c(C(=O)O)sc2cc(Br)c(O)c(Br)c12,Activity [4]: inactive; Activity [5]: inactive
34.4,2.48,19,,O=C(O)c1[nH]c2cc(O)c(O)cc2c1-c1cccc(Cl)c1,
23.2,23.6,75,,O=C(O)c1cc2cc(O)c(O)cc2[nH]1,
10.8,22.6,40,,O=C(O)c1ccc(-c2c(C(=O)O)[nH]c3cc(O)c(O)cc23)cc1,
166,4.1,48,,O=C(O)c1[nH]c2cc(O)c(O)cc2c1Br,
24.2,1.06,25,,O=C(O)c1[nH]c2cc(O)c(O)cc2c1-c1cc(Cl)cc(Cl)c1,
,,,Not Active,O=C(O)Cn1c(C(=O)O)cc2cc(O)c(O)cc21,EC50 ([2]; ht-29): Not Active
,12.9,,Not Active,O=C(O)c1[nH]c2cc(O)c(O)cc2c1-c1ccc(C(F)(F)F)cc1,
387,2.54,89,,O=C(O)c1[nH]c2cc(O)c(O)cc2c1-c1ccc(Cl)cc1,
75.7,24.9,17,,O=C(O)c1cccc(-c2c(C(=O)O)[nH]c3cc(O)c(O)cc23)c1,
90.6,6.17,109,,Cc1c(C(=O)O)sc2cc(O)c(O)cc12,Activity [6]: inactive
133,16.2,27,,Cc1c(C(=O)O)oc2cc(O)c(O)cc12,Activity [7]: inactive
,43.5,,Not Active,O=C(O)c1cc2cc(O)c(O)cc2n1Cc1ccccc1,
,43.7,,Not Active,O=C(Cn1c(C(=O)O)cc2cc(O)c(O)cc21)c1ccccc1,
61.2,10.3,18,,O=C(O)c1[nH]c2cc(O)c(O)cc2c1-c1ccsc1,
,84,,Not Active,O=C(O)c1[nH]c2cc(O)c(O)cc2c1-c1cccnc1,
520,7.35,86,,O=C(O)c1cc2cc(O)c(O)cc2s1,Activity [6]: inactive
,20.2,,Not Active,O=C(O)c1[nH]c2cc(O)c(O)cc2c1-c1ccccc1,
> 500,17.3,> 25,,Cc1ccc(Cn2c(C(=O)O)cc3cc(O)c(O)cc32)cc1,
45.4,64.2,85,,Cn1c(C(=O)O)cc2cc(O)c(O)cc21,
